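Tested at 5 concentrations; 48 h exposure; 96-well plates; endpoints linearly interpolated, else capped at highest concentration. GI50 is the concentration that inhibits growth by half.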 The source made the active and inactive calls. Rule as the data show it: active = GI50 up to about 1.1 µM and inactive = higher.
Key:
Experiment in all cases: NCI tumour cell line growth inhibition, 48 h
ACHN = system: ACHN
DLD-1 = system: DLD-1
HL-60 = system: HL-60
HOP-18 = system: HOP-18
IGROV-1 = system: IGROV-1
MOLT-4 = system: MOLT-4
NCI-H226 = system: NCI-H226
OVCAR-8 = system: OVCAR-8
RPMI-8226 = system: RPMI-8226
SK-MEL-28 = system: SK-MEL-28
SK-MEL-5 = system: SK-MEL-5
SK-OV-3 = system: SK-OV-3
SN12C = system: SN12C
SW-620 = system: SW-620
UACC-62 = system: UACC-62
XF498 = system: XF498
DMS-114 = system: DMS-114
SNB-78 = system: SNB-78
MDA-MB-231 = system: MDA-MB-231

[O-][S+]1c2ccccc2NC(c2ccc3ccccc3c2)CC1c1ccccc1 (stereo unspecified)
GI50 (ACHN): 20.8 µM (inactive)
GI50 (DLD-1): 23.3 µM (inactive)
GI50 (HL-60): 24.3 µM (inactive)
GI50 (HOP-18): > 100 µM (inactive)
GI50 (IGROV-1): 19.3 µM (inactive)
GI50 (MOLT-4): 24 µM (inactive)
GI50 (NCI-H226): 20.6 µM (inactive)
GI50 (OVCAR-8): 21.2 µM (inactive)
GI50 (RPMI-8226): 21.6 µM (inactive)
GI50 (SK-MEL-28): 35.2 µM (inactive)
GI50 (SK-MEL-5): 17.5 µM (inactive)
GI50 (SK-OV-3): 99.1 µM (inactive)
GI50 (SN12C): 32.6 µM (inactive)
GI50 (SW-620): 20 µM (inactive)
GI50 (UACC-62): 37.1 µM (inactive)
GI50 (XF498): 19.1 µM (inactive)

CC(=O)Nc1ccc(/C=c2\sc3nnc(CCC(=O)Nc4ccccc4Cl)n3c2=O)cc1
GI50 (ACHN): > 100 µM (inactive)
GI50 (DLD-1): 32.4 µM (inactive)
GI50 (DMS-114): 55.5 µM (inactive)
GI50 (HL-60): 19.8 µM (inactive)
GI50 (HOP-18): 52.8 µM (inactive)
GI50 (IGROV-1): > 100 µM (inactive)
GI50 (MOLT-4): 19.4 µM (inactive)
GI50 (NCI-H226): 23.4 µM (inactive)
GI50 (OVCAR-8): > 10 µM (inactive)
GI50 (RPMI-8226): 20.8 µM (inactive)
GI50 (SK-MEL-28): 23 µM (inactive)
GI50 (SK-MEL-5): 25 µM (inactive)
GI50 (SK-OV-3): > 100 µM (inactive)
GI50 (SN12C): 39.6 µM (inactive)
GI50 (SNB-78): 47.3 µM (inactive)
GI50 (SW-620): 27 µM (inactive)
GI50 (UACC-62): 23.9 µM (inactive)
GI50 (XF498): 25.1 µM (inactive)

C=C1C(=O)OC2CC(C)C3C=CC(=O)C3CC12 (stereo unspecified)
GI50 (ACHN): 3.08 µM (inactive)
GI50 (DMS-114): 2.44 µM (inactive)
GI50 (HL-60): 0.891 µM (active)
GI50 (HOP-18): 5.77 µM (inactive)
GI50 (IGROV-1): 3.62 µM (inactive)
GI50 (MDA-MB-231): 1.89 µM (inactive)
GI50 (MOLT-4): 1.5 µM (inactive)
GI50 (NCI-H226): 2.64 µM (inactive)
GI50 (OVCAR-8): 2.94 µM (inactive)
GI50 (RPMI-8226): 1.71 µM (inactive)
GI50 (SK-MEL-28): 1.68 µM (inactive)
GI50 (SK-MEL-5): 2.14 µM (inactive)
GI50 (SK-OV-3): 16.1 µM (inactive)
GI50 (SN12C): 2.02 µM (inactive)
GI50 (SNB-78): 3.42 µM (inactive)
GI50 (SW-620): 0.998 µM (active)
GI50 (UACC-62): 1.71 µM (inactive)
GI50 (XF498): 1.63 µM (inactive)

C=CCOCCCC(=O)C(=[N+]=[N-])C(=O)OC
GI50 (ACHN): > 100 µM (inactive)
GI50 (DLD-1): > 100 µM (inactive)
GI50 (HL-60): > 100 µM (inactive)
GI50 (HOP-18): > 100 µM (inactive)
GI50 (IGROV-1): > 100 µM (inactive)
GI50 (MOLT-4): > 100 µM (inactive)
GI50 (NCI-H226): > 100 µM (inactive)
GI50 (OVCAR-8): > 100 µM (inactive)
GI50 (RPMI-8226): > 100 µM (inactive)
GI50 (SK-MEL-28): > 100 µM (inactive)
GI50 (SK-MEL-5): > 100 µM (inactive)
GI50 (SK-OV-3): > 100 µM (inactive)
GI50 (SN12C): > 100 µM (inactive)
GI50 (SNB-78): > 100 µM (inactive)
GI50 (SW-620): > 100 µM (inactive)
GI50 (UACC-62): > 100 µM (inactive)
GI50 (XF498): > 100 µM (inactive)

CCCC(=O)c1c(NOC2OCC(OC(C)=O)C(OC(C)=O)C2OC(C)=O)nc(OC)n(C)c1=O (stereo unspecified)
GI50 (ACHN): > 100 µM (inactive)
GI50 (DLD-1): > 100 µM (inactive)
GI50 (DMS-114): > 100 µM (inactive)
GI50 (HL-60): 0.498 µM (active)
GI50 (HOP-18): > 100 µM (inactive)
GI50 (IGROV-1): > 100 µM (inactive)
GI50 (MOLT-4): > 100 µM (inactive)
GI50 (NCI-H226): > 100 µM (inactive)
GI50 (OVCAR-8): > 100 µM (inactive)
GI50 (RPMI-8226): > 100 µM (inactive)
GI50 (SK-MEL-28): > 100 µM (inactive)
GI50 (SK-MEL-5): > 100 µM (inactive)
GI50 (SK-OV-3): > 100 µM (inactive)
GI50 (SN12C): > 100 µM (inactive)
GI50 (SW-620): > 100 µM (inactive)
GI50 (UACC-62): > 100 µM (inactive)
GI50 (XF498): > 100 µM (inactive)

COc1ccc(/C(Cl)=C(/c2ccc(O)cc2)c2ccc(OCCN(C)C)cc2)cc1
GI50 (ACHN): 14.6 µM (inactive)
GI50 (DLD-1): 15.7 µM (inactive)
GI50 (DMS-114): 7.18 µM (inactive)
GI50 (HL-60): 10.2 µM (inactive)
GI50 (HOP-18): 12.5 µM (inactive)
GI50 (IGROV-1): 16.4 µM (inactive)
GI50 (NCI-H226): 16.1 µM (inactive)
GI50 (OVCAR-8): 15.5 µM (inactive)
GI50 (RPMI-8226): 5.96 µM (inactive)
GI50 (SK-MEL-28): 4.38 µM (inactive)
GI50 (SK-MEL-5): 4.28 µM (inactive)
GI50 (SK-OV-3): 13.1 µM (inactive)
GI50 (SN12C): 12.9 µM (inactive)
GI50 (SNB-78): 14.5 µM (inactive)
GI50 (SW-620): 11.9 µM (inactive)
GI50 (UACC-62): 16.6 µM (inactive)
GI50 (XF498): 3.65 µM (inactive)

N#CC(C(=O)CCC(=O)Nc1ccc(Cl)c(Cl)c1)c1ccccc1 (stereo unspecified)
GI50 (ACHN): > 100 µM (inactive)
GI50 (DLD-1): > 100 µM (inactive)
GI50 (DMS-114): > 100 µM (inactive)
GI50 (HL-60): > 100 µM (inactive)
GI50 (HOP-18): > 100 µM (inactive)
GI50 (IGROV-1): > 100 µM (inactive)
GI50 (MOLT-4): > 100 µM (inactive)
GI50 (NCI-H226): > 100 µM (inactive)
GI50 (OVCAR-8): > 100 µM (inactive)
GI50 (RPMI-8226): > 100 µM (inactive)
GI50 (SK-MEL-28): > 100 µM (inactive)
GI50 (SK-MEL-5): > 100 µM (inactive)
GI50 (SN12C): > 100 µM (inactive)
GI50 (SNB-78): > 100 µM (inactive)
GI50 (SW-620): > 100 µM (inactive)
GI50 (UACC-62): > 100 µM (inactive)
GI50 (XF498): > 100 µM (inactive)

O=C1CC23CCCCCCCCCCC2(C1)CC(=O)C3 (stereo unspecified)
GI50 (ACHN): 29 µM (inactive)
GI50 (DLD-1): 34 µM (inactive)
GI50 (DMS-114): 26.7 µM (inactive)
GI50 (HL-60): 17.4 µM (inactive)
GI50 (HOP-18): 24 µM (inactive)
GI50 (IGROV-1): 25.7 µM (inactive)
GI50 (MOLT-4): 18.7 µM (inactive)
GI50 (NCI-H226): 26.5 µM (inactive)
GI50 (OVCAR-8): 31.2 µM (inactive)
GI50 (RPMI-8226): 19.4 µM (inactive)
GI50 (SK-MEL-28): 38.7 µM (inactive)
GI50 (SK-MEL-5): 17.4 µM (inactive)
GI50 (SK-OV-3): 16.8 µM (inactive)
GI50 (SN12C): 17.6 µM (inactive)
GI50 (SW-620): 40.6 µM (inactive)
GI50 (XF498): 21.5 µM (inactive)

From ChEMBL document CHEMBL1201862, “PubChem BioAssay data set” (2004)
